In US20170121683A1, “ARYL HYDROCARBON RECEPTOR DISRUPTION AND ENHANCEMENT” (priority 2015, published 2017):

What was measured:
Type in all cases: cell-based, human
[1] = tested on: AHR-target genes (CYP1A1 and CYP1B1) in H9 hESCs; experiment: qPCR of AHR downstream gene targets in undifferentiated hESCs; conditions: 1 μM SR-1 or 10 nM TCDD for 96 hours, compared to DMSO controls
Method: Undifferentiated H9 hESCs were treated with either DMSO (vehicle), 1 μM SR-1, or 10 nM TCDD for 96 hours in hESC growth media. Quantitative polymerase chain reaction analysis for AHR and two downstream effector gene targets (CYP1A1 and CYP1B1) are shown.
(§1) FIG. 8A. Non-adherent hematopoietic progenitor cells derived from hESCs were harvested at Day 6+3, Day 6+5, Day 6+7, and Day 6+9 time points and probed for gene expression by quantitative real-time PCR (qPCR). For each gene, Ct values were normalized to GAPDH at each time point and data is presented as relative fold-change as compared to undifferentiated hESCs. […] FIG. 8B Undifferentiated hESCs were cultured in the presence of 1 μM SR-1, 10 nM TCDD, or DMSO vehicle control for 96 hours and probed for gene expression by qPCR. For each gene, Ct values were normalized to GAPDH at each time point and data is presented as relative fold-change as compared to DMSO treated hESCs. n=3, error bars represent SEM, *p<0.05 assessed by two-way ANOVA+Tukey-Kramer multiple comparisons post-hoc test. FIG. 8C. Both adherent and non-adherent cell fractions treated with either DMSO, SR-1, or TCDD were harvested at Day 6+3, Day 6+6, and Day 6+9 and probed for viability with Sytox Blue Live/Dead Stain. Total percentage of viable cells for each group and time point are plotted. n=3.
H9 human embryonic stem cells (H9 hESCs; University of Wisconsin, Madison, Wis.) were adapted to passage as single cells using TrypLE (Invitrogen, Carlsbad, Calif.) as previously described (Ng et al. Nat. Protoc. 3, 768-76 (2008)). H9 hESCs were maintained on irradiated mouse embryonic fibroblasts in ES cell growth medium including Dulbecco's modified Eagle's medium (DMEM)/Ham's F-12 medium (F12) (Invitrogen) supplemented with 15% Knockout Serum Replacer (Invitrogen), 1 mM L-glutamine (Invitrogen), 0.1 mM β-mercaptoethanol (Sigma Aldrich, St. Louis, Mo.), 1% minimum essential medium nonessential amino acids (Invitrogen), 4 ng/mL basic fibroblast growth factor (R&D Systems Inc., Minneapolis, Minn.), and 1% penicillin-streptomycin (Invitrogen) incubated at 37° C. in a humidified atmosphere containing 5% CO2. Single-cell adapted hESCs were subjected to hemato-endothelial differentiation as spin embryoid bodies (“spin-EBs”), also previously described (Ng et al. Nat. Protoc. 3, 768-76 (2008); Knorr et al. Stem Cells Dev. 22, 1861-9 (2013); Ferrell et al., Stem Cells 33(4), 1130-41 (2015)). […]

hESCs = experiment: Viability of hESC-derived cells, Sytox Blue Live/Dead Stain; conditions: 1 μM SR-1 or 10 nM TCDD
Method: as §1, with “Total percentage of viable cells for each group and time point are plotted. n=3.” left out
Harvested cells were incubated with PE-Cy7 CD34 (BD Biosciences, San Jose, Calif.) in conjunction with APC CD31, APC CD41a, APC CD43, or APC CD45 for 30 minutes at 4° C. in FACS buffer (DPBS containing 2% fetal bovine serum and 0.1% sodium azide). […] Cells were analyzed using an LSRII flow cytometer (BD Biosciences) and data were analyzed using FlowJo software (TreeStart, Ashland, Oreg.).

[2] = tested on: hESC-derived non-adherent hematopoietic progenitor cells; experiment: Cell cycle analysis (EdU/propidium iodide flow cytometry); conditions: Day 6+5, SR-1 or TCDD, n=3
Method: FIG. 10A. Non-adherent hematopoietic progenitor cells derived from hESCs were cultured in the presence of DMSO, SR-1, and TCDD until Day 6+5. Cell cycle phase was assessed using flow cytometry to determine the total percentage of G0/G1)(EdU^−PI^lo, S-phase (EdU^+PI^+), or G2/M (EdU^−PI^hi). Representative flow cytometry plots are shown. FIG. 10B. Quantification of cell cycle analysis, n=3, *p<0.05, **p<0.01, ***p<0.001 as assessed by two-way ANOVA+Tukey-Kramer multiple comparisons post-hoc test.
Spin EBs were differentiated into hemato-endothelial cells with non-adherent cells harvested on Day 6+5. Cells were cultured in a 24-well plate and harvested after 1 week for flow cytometry analysis. Cells were co-stained with anti-human CD34-PECy7 to monitor proliferation of HSPCs. For cell cycle analysis, Day 6+5 non-adherent cells derived from EBs were harvest and monitored for S-phase using the Click-iT EdU Alex Fluor 647 flow cytometry assay kit per manufacturer instructions. Prior to flow cytometry, cells were counterstained with 50 μg/mL propidium iodide supplemented with 100 μg/mL RNAse A (New England BioLabs, Ipswich, Mass.).

Row | SMILES | expression of CYP1A1 [1] | expression of CYP1B1 [1] | cytotoxic effects on hESCs (hESCs) | percentage of cells in G0/G1 phase (EdU−PIlow) [2] | percentage of cells in S-phase (EdU+PI+) [2]
1 | CC(C)n1cnc2c(NCCc3ccc(O)cc3)nc(-c3csc4ccccc34)nc21 [SR-1, StemReginin-1] | reduced expression | reduced expression | no significant cytotoxic effects | 43.7%±1.82 | 38.2%±1.00
2 | Clc1cc2c(cc1Cl)Oc1cc(Cl)c(Cl)cc1O2 [TCDD, 2,3,7,8-tetrachlorodibenzo-p-dioxin] | significantly increased expression | significantly increased expression | no significant cytotoxic effects | 25.8±0.34% | 38.2%±1.03
